Laboratory results reported in US12390505B2, “Composition for preventing or treating obesity or diabetes, comprising acanthopanax senticosus extract and garcinia cambogia extract or compound isolated therefrom” (KOREA RESEARCH INSTITUTE OF BIOSCIENCE AND BIOTECHNOLOGY, priority 2020, dated 2025).

Experiments:
Assay type in all cases: in vivo, mouse
[1] = Example 11 HFD mice: weight change, dietary efficiency and organ weight; conditions: oral once daily 10 weeks, 50 mg/kg
Protocol: (§1) After adapting 8-week-old male C57b1/6 J mice to the basic diet (AIN-76A diet) for 2 weeks, and consuming Diet Induced Obesity Diet Formulas (D12451) 60 kcal % HFD diet for 2 weeks from 10 weeks of age, and then the test drug was administered when the average body weight reached 28 g or more. The animal breeding room environment of the mouse was maintained in a constant temperature (25±2° C.), constant humidity (50±5%) and a 12-hour photoperiod (light on 07:00˜19:00) in which the light and shade were controlled in an SPF environment. […] The test drug was dispersed in 0.5% Carboxymethyl cellulose (CMC) and administered in a volume of 0.2 ml, and the drug was administered orally by force into the stomach using a metal Zonde for oral administration.
Body weight and food intake were measured and recorded at regular times every week. Total weight gain: weight at the end of the experiment−weight at the start of the experiment (1) Food intake=[…] (2) Food efficiency ratio (FER)=[total weight gain/total food intake]×100 (3)
(§2) The data were analyzed using one-way ANOVA to determine a statistically significant variance between each group for each final point measured, and statistical significance between each group was determined using the nonparametric Mann-Whitney test and Dunnett's multiple comparison test (IBM SPSS statistics version 19.0 statistic software, Inc, IBM, USA).

[2] = Example 11 HFD mice: body fat reduction, white adipose tissue weight; conditions: oral once daily 10 weeks, 50 mg/kg
Protocol: as §1
After removing retroperitoneal white adipose tissue and intestines white adipose tissue of each experimental animal, the weight of adipose tissue was calculated.
as §2, with “Results obtained from various experiments are recorded as mean±standard error of mean (SEM), and significance verification is determined using the student's T-test analysis method. The” for “The”

[3] = Example 11 HFD mice: oral glucose tolerance test; conditions: oral once daily 10 weeks, 50 mg/kg
Protocol: After adapting 8-week-old male C57b1/6 J mice to the basic diet (AIN-76A diet) for 2 weeks, and consuming Diet Induced Obesity Diet Formulas (D12451) 60 kcal % HFD diet for 2 weeks from 10 weeks of age, and then the test drug was administered when the average body weight reached 28 g or more. The animal breeding room environment of the mouse was maintained in a constant temperature (25±2° C.), constant humidity (50±5%) and a 12-hour photoperiod (light on 07:00˜19:00) in which the light and shade were controlled in an SPF environment. […]
[…] Blood to be used for blood glucose measurement was collected from the tail vein of a mouse, and blood glucose was measured using a serum analyzer (Accutrend plus GCTL Cobas Roche, Germany).
as §2, with “Results obtained from various experiments are recorded as mean±standard error of mean (SEM), and significance verification is determined using the student's T-test analysis method. The” for “The”

[4] = Example 11 HFD mice: serum test; conditions: oral once daily 10 weeks, 50 mg/kg
Protocol: as §1
Blood was collected by cardiac puncture to conduct a blood biochemical test after the end of the final experiment, and then plasma was separated by centrifugation at 3,000 rpm and 4° C. for 15 minutes within 30 minutes after blood collection, and then stored at −74° C. for blood chemistry and ELISA analysis. The contents of total cholesterol, high-density lipoprotein (HDL), low-density lipoprotein (LDL), triglyceride, FFA, glucose, and LDH, which are indicators of lipid content, were measured using an automated biochemical analyzer (Hitachi-720, Hitachi Medical, Japan). IGF-1 and Creatine were diluted in coating buffer, coated on microwells, and left overnight at 4° C. After washing each well with the buffer solution three times, 100 μl of serum (10-fold dilution) was dispensed, left at room temperature for 1 hour, and then washed twice with the buffer solution. Thereafter, 100 μl of the antibody avidin-HRP conjugate was treated, left at room temperature for 1 hour, and then washed again. 100 μl of the TMB substrate was dispensed, left in the dark for 30 minutes, treated with 50 μl of the stop solution, and absorbance was measured at a wavelength of 450 nm using an ELISA reader.
as §2, with “Results obtained from various experiments are recorded as mean±standard error of mean (SEM), and significance verification is determined using the student's T-test analysis method. The” for “The”

PPAR-gamma mRNA = assay: Example 12 HFD mice: adipose tissue PPAR-gamma mRNA analysis; conditions: adipose tissue of HFD mice, oral once daily for 10 weeks, chiisanogenin 50 mg/kg, Garcinia cambogia extract 200 mg/kg, combination 50 + 150 mg/kg, Met 50 mg/kg
Protocol: The test drug was dispersed in 0.5% Carboxymethyl cellulose (CMC) and administered in a volume of 0.2 ml, and the drug was administered orally by force into the stomach using a metal Zonde for oral administration. RNA was extracted from tissues using RNAsolB (Tel-Test) solution, and cDNA and real-time PCR analysis were performed using One-step SYBR Green PCR kit (AB science). From the prepared cDNA, a FAM probe of [NT] ID NO: 16) sequence was used to amplify PPAR-gamma mRNA, and a VIC probe of [NT] ID NO: 15) sequence was used to amplify GAPDH mRNA as an intra control. Real time quantitative PCR was performed using the Applied Biosystems 7500 Real-Time PCR system (Applied Biosystems, USA). Results obtained from various experiments are recorded as mean±standard error of mean (SEM), and significance verification is determined using the student's T-test analysis method. The data were analyzed using one-way ANOVA to determine a statistically significant variance between each group for each final point measured, and statistical significance between each group was determined using the nonparametric Mann-Whitney test and Dunnett's multiple comparison test (IBM SPSS statistics version 19.0 statistic software, Inc, IBM, USA).

With `CN(C)C(=N)N=C(N)N` [Met, Metformin] the Final weight [1] was 38.6 ± 0.93 g, the “Food intakes” value [1] was 2.24 g/day and the “Inhibition Rate (FER)” value [1] was 41%. The “Inhibition Rate (final weight)” value [1] was 43%, the “Inhibition Rate (weight gain)” value [1] was 51% and the Kidney weight [1] was 0.31 ± 0.01 g. The Spleen weight [1] was 0.10 ± 0.00 g, the Weight gain [1] was 15.3 ± 0.82 g and the “Inhibition Rate (intestines WAT)” value [2] was 46%. The “Inhibition Rate (retroperitoneal white adipose tissue)” value [2] was 12%, the “Intestines WAT” value [2] was 0.55 ± 0.05 g and the “Retroperitoneal white adipose tissue” value [2] was 0.89 ± 0.06 g. For the same compound, the “Inhibition Rate (OGTT)” value [3] was 23%, the “OGTT (30 min-0 min, mg/dL)” value ([3]; glucose 1 g/kg) was 148 ± 18.50^ mg/dL and the Cholesterol [4] was 175.6 ± 9.03 mg/dL. It also gave a Creatin [4] of 0.564 ± 0.011 mg/dL, a Glucose [4] of 202.5 ± 7.98 mg/dL and an HDL [4] of 88.1 ± 2.99 mg/dL. For the same compound, the IGF-1 [4] was 1455.8 ± 138.07 pg/mL, the “Inhibition Rate (Cholesterol)” value [4] was 40% and the “Inhibition Rate (Creatin)” value [4] was 175%. For the same compound, the “Inhibition Rate (Glucose)” value [4] was 11%, the “Inhibition Rate (HDL)” value [4] was 7% and the “Inhibition Rate (IGF-1)” value [4] was 89%. For the same compound, the “Inhibition Rate (LDH)” value [4] was 122%, the “Inhibition Rate (LDL)” value [4] was 71% and the “Inhibition Rate (NEFA)” value [4] was 61%. For the same compound, the “Inhibition Rate (Triglyceride)” value [4] was 65%, the LDH [4] was 592.0 ± 53.77 U/L and the LDL [4] was 12.3 ± 0.80 mg/dL. The NEFA [4] was 2.26 ± 0.10 mEq/L, the Triglyceride [4] was 118.6 ± 5.90 mg/dL and the “PPAR-γ mRNA Inhibition Rate (%)” value (PPAR-gamma mRNA) was 80%. For the same compound, the “PPAR-γ mRNA, mean ± standard error” value (PPAR-gamma mRNA; real-time PCR vs GAPDH) was 1.235 ± 0.42.
